Laboratory results from patent US10471059B2, “Compositions and methods of using tyrosine kinase inhibitors” (YALE UNIVERSITY, priority 2015, dated 2019).
Entries after “also recorded” stand apart in the source; their conditions may differ.

How the values were obtained:
[1] = system: Ptpn11^D61G/+ mice; assay: Quantitative RT-PCR of heart RNA, NS mice, postnatal dasatinib; assay type: in vivo; conditions: P56
Procedure: (§1) FIG. 15, comprising FIG. 15a-15j, is a panel of images showing cardiomyopathy and cardiac fibrosis in Ptpn11^D61G/+ mice rescued by dasatinib. […] FIG. 15e is a graph showing relative expression of fibrosis marker gene, Col1a2. […] FIG. 15f is a graph showing relative expression of fibrosis marker gene, Col3a1. FIG. 15g is a graph showing relative expression of cardiac fetal gene, Myh6 (αMHC). FIG. 15h is a graph showing relative expression of cardiac fetal gene, Myh7 (βMHC). FIG. 15i is a graph showing relative expression of cardiac fetal gene, Anf. FIG. 15j is a graph showing relative expression of cardiac fetal gene, Bnp. The genes were measured by quantitative RT-PCR (n=6 for each group). […] (Two-way ANOVA test).
(§2) RNA Extraction and Quantitative Real-Time PCR Analysis—RNA was isolated from mice heart using an RNeasy kit (Qiagen, CA) according to the manufacturer's instructions. A total of 1 μg RNA was reverse transcribed to generate cDNA using a reverse transcriptase PCR kit (Applied Biosystems, CA). Real-time quantitative PCR was carried out in triplicate using the Applied Biosystems 7500 Fast real-time PCR system and SYBR green gene expression master mix with following primer pairs.
All relative gene expression levels were analyzed using the ΔCT method and normalized to 18S rRNA expression.

[2] = system: c-Src and PZR tyrosyl phosphorylation in the heart of NS mice; assay: Phosphorylation in heart tissue after i.p. dasatinib, immunoblot; assay type: in vivo
Procedure: Male Ptpn11D61G/+ mice were injected i.p. with dasatinib at the indicated dose or DMSO control, 24h later mice were sacrificed, heart tissue harvested and immunoblotted using the indicated antibodies.
FIG. 13i is an image showing heart tissue immunoblotted with anti-Shp2, p-ERK1/2, ERK1/2, p-Src (Y416), Src, p-PZR (Y263) and PZR antibodies. […] Heart tissue was isolated after 18 hr and tissue lysates were immunoblotted.
FIG. 18a is an image showing heart tissue immunoblotted with p-Raf1 (Y341), Raf1, p-MEK1/2, MEK1/2, p-INK, INK, p-p38, p38, p-Akt (S473) and Akt antibodies. Heart tissue was isolated after 18 hr and tissue lysates were immunoblotted.
Immunoprecipitation and Immunoblotting—Cells or heart tissue were lysed on ice in lysis buffer (25 mM Tris-HCl, pH 7.4, 136 mM NaCl, 1 mM CaCl2, 1 mM MgCl2, 1% Nonidet P-40, 1 mM Na3VO4, 10 mM NaF, 1 mM benzamidine, 1 mM PMSF, 1 μg/ml pepstatin A, 5 μg/ml aprotinin, and 5 μg/ml leupeptin). Cell or tissue lysates were incubated at 4° C. for 30 min and clarified by centrifugation at 14,000 rpm at 4° C. for 10 min.

[3] = system: Ptpn11^D61G/+ mice; assay: Heart weight and histology (Masson's trichrome) after postnatal dasatinib; assay type: in vivo; conditions: NS mice
Procedure: as §1

[4] = system: tumor incidence; conditions: mice; cited from earlier work
[5] = system: Ptpn11^Y279C/+ mice; assay: Quantitative RT-PCR of heart RNA, NSML mice, postnatal dasatinib; assay type: in vivo
Procedure: FIG. 25, comprising FIGS. 25a-25f, is a panel of graphs showing the improvement in molecular markers of cardiomyopathy and fibrosis in NSML (Y279C/+) mice following dasatinib treatment. Total heart RNA was isolated from postnatal vehicle- or dasatinib-treated (0.1 mg/kg/day) WT and Ptpn11^Y279C/+ mice (P42). Fibrosis marker genes, Col1a2 (FIG. 25a) and Col3a1 (FIG. 25b), markers of cardiomyopathy ANP (FIG. 25c) and cardiac fetal genes, Myh6 (αMHC) (FIG. 25d), Myh7 (bMHC) (FIG. 25e), and Myh6/Myh7 ratio (FIG. 25f) were measured by quantitative RT-PCR (n=6 for each group). All data represent mean±SEM. *, p<0.05; **, p<0.01; ***, p<0.001. (Two-way ANOVA test).
as §2
The data presented in FIGS. 25a-25f represents dasatinib treatment starting at post-natal day 10 (P10) for 6 weeks (P42) in wild type (WT) and NSML (Ptpn11^Y279C/+) mice. Ptpn11^Y279C/+ were obtained from Dr. Kontaridis (Beth Israel Deaconess Hospital, Boston, Mass.) and bred as described (Marin, et al, J Clin. Invest., 121:1026-1043(2011)). Mice were treated with either vehicle or dasatinib at a dose of 0.1 mg/kg/day for 6 weeks […]. At the completion of the study, wild type and Ptpn11^Y279C/+ mice were sacrificed and total RNA from the hearts was isolated and qPCR was performed for the detection of mRNA expression for genes involved in the development of cardiomyopathy, Myh6 and Myh7 and the development of cardiac fibrosis, col1a2 and Col3a1.

[6] = system: Ptpn11^D61G/+ mice; assay: Growth, facial dysmorphia and splenomegaly after postnatal dasatinib; assay type: in vivo; conditions: postnatal 0.1 mg/kg/day, NS mice
From the text: Differences within treatment groups were significant (p<0.001, Two-way ANOVA test) from 3-weeks to 8-weeks old. FIG. 19b is a graph showing body weight measured at P42. FIG. 19c is a graph showing body length measured at P42. FIG. 19d is a graph showing body weight measured at P56. […]. FIG. 19e is a graph showing body length measured at P56.
(n=10˜16 for each group; Two-way ANOVA test).
All data represent mean±SEM. *, p<0.05; ***, p<0.001.
Vehicle-injected mice served as control.

[7] = postnatal 0.1 mg/kg/day from P10 for 6 weeks, Ptpn11Y279C/+ mice

Cc1nc(Nc2ncc(C(=O)Nc3c(C)cccc3Cl)s2)cc(N2CCN(CCO)CC2)n1.O [Dasatinib, N-(2-chloro-6-methylphenyl)-2-[[6-[4-(2-hydroxyethyl)-1-piperazinyl]-2-methyl-4-pyrimidinyl]amino]-5-thiazole carboxamide monohydrate]
Anp and Bnp mRNA expression [1]: completely rescued | MYH6 expression [1]: equivalent level of MYH6 expression in wild type and NS mice | MYH7 expression [1]: completely normalized | mRNA expression of fibrotic genes Col1a2 and Col3a1 [1]: reduced mRNA expression levels | ERK1/2, Raf-1, MEK1, p38 MAPK and JNK phosphorylation in the heart ([2]; 3-week-old NS mice, dasatinib 0.1-0.5 mg/kg i.p.): neither ERK1/2 phosphorylation (FIGS. 13i-13l), Raf-1, MEK1, p38 MAPK, nor JNK were affected | dose sufficient to significantly inhibit both c-Src and PZR tyrosyl phosphorylation in the heart ([2]; 3-week-old NS mice, i.p., heart isolated after 18 hr): 0.5 mg/kg | fold lower dose than effective chemotherapeutic doses that can inhibit PZR tyrosyl phosphorylation in the heart ([2]; NS mice, chemotherapeutic approx. 1.4-2.0 mg/kg/day): up to 250 fold | PZR tyrosyl phosphorylation in heart tissue ([2]; male Ptpn11D61G/+ mice, i.p., 24 h): effective at reducing | cardiac fibrosis at the histological level ([3]; P56): markedly reduced | pathologic cardiac phenotypes (heart weight, dilated cardiomyopathy, myofibrillar disorganization) ([3]; P56, monohydrate): profound reversal; also recorded: rescued | dosage effective in preventing tumor incidence [4]: ~20 mg/kg | molecular markers of cardiomyopathy and fibrosis ([5]; 0.1 mg/kg/day, NSML (Y279C/+) mice): improvement | expression of ANP, Myh6 and Myh7 [5, 7]: complete restoration back to wild type levels | ratio of Myh6/Myh7 [5, 7]: restored to wild type levels | growth (body weight, body length) [6]: did not improve | facial dismorphism ([6]; monohydrate): did not improve | splenomegaly ([6]; monohydrate): did not improve; also recorded: did not rescue
